How the values were obtained:
[1] = test system: A549-ACE2 infected with SARS-CoV-2; assay: cell count relative to DMSO; higher = less toxic; conditions: 24 h
Caco-2 [2] = assay: cell viability relative to DMSO; higher = less toxic; conditions: 72 h
Calu-3 [3] = assay: as above; conditions: 72 h
HepG2 [4] = assay: as above; conditions: 72 h
U2OS [5] = assay: as above; conditions: 72 h
Vero E6 [6] = assay: as above; conditions: 72 h
[7] = test system: A549-ACE2 infected with SARS-CoV-2; assay: SARS-CoV-2 infection rate relative to DMSO; higher = more infection; conditions: 24 h
A549-ACE2 [8] = assay: phospholipidosis EC50; higher = less potent phospholipidosis inducer
A549-ACE2 [9] = assay: drug-induced phospholipidosis relative to tamoxifen; higher = more phospholipidosis
[10] = test system: A549-ACE2 infected with SARS-CoV-2; assay: morphology score (similarity to uninfected cells); higher = more like uninfected cells; conditions: 24 h
U2OS [11] = assay: relative viability EC50 (midpoint between 100% and the lowest measured viability); higher = less toxic; conditions: 72 h
Vero E6 [12] = assay: as above; conditions: 72 h
Caco-2 [13] = assay: drug sensitivity score (DSS) for viability; higher = more toxic; extreme values may be limits of the assay; conditions: 72 h
Calu-3 [14] = assay: as above; conditions: 72 h
HepG2 [15] = assay: as above; conditions: 72 h
U2OS [16] = assay: as above; conditions: 72 h
Vero E6 [17] = assay: as above; conditions: 72 h
Caco-2 [18] = assay: relative viability EC50 (midpoint between 100% and the lowest measured viability); higher = less toxic; conditions: 72 h
Calu-3 [19] = assay: as above; conditions: 72 h
HepG2 [20] = assay: as above; conditions: 72 h

NCCC(Oc1ccc(C(F)(F)F)cc1)c1ccccc1 (stereo unspecified) [norfluoxetine]
Conditions	SARS-CoV-2 infection rate [%]	cell count [%]	cell viability [%]	morphology score	phospholipidosis EC50 [µM]
A549-ACE2 [8], 24 h	–	–	–	–	6.78
A549-ACE2 [8], 48 h	–	–	–	–	5.96
A549-ACE2 [8], 72 h	–	–	–	–	10.7
Caco-2 [2], 1 nM	–	–	90	–	–
Caco-2 [2], 10 nM	–	–	104	–	–
Caco-2 [2], 100 nM	–	–	104	–	–
Caco-2 [2], 1000 nM	–	–	103	–	–
Caco-2 [2], 10000 nM	–	–	63.3	–	–
Calu-3 [3], 1 nM	–	–	96.4	–	–
Calu-3 [3], 10 nM	–	–	108	–	–
Calu-3 [3], 100 nM	–	–	100	–	–
Calu-3 [3], 1000 nM	–	–	93.6	–	–
Calu-3 [3], 10000 nM	–	–	54.3	–	–
HepG2 [4], 1 nM	–	–	93.6	–	–
HepG2 [4], 10 nM	–	–	92.5	–	–
HepG2 [4], 100 nM	–	–	107	–	–
HepG2 [4], 1000 nM	–	–	73.7	–	–
HepG2 [4], 10000 nM	–	–	64.7	–	–
U2OS [5], 1 nM	–	–	96.9	–	–
U2OS [5], 10 nM	–	–	102	–	–
U2OS [5], 100 nM	–	–	108	–	–
U2OS [5], 1000 nM	–	–	102	–	–
U2OS [5], 10000 nM	–	–	90.9	–	–
Vero E6 [6], 1 nM	–	–	106	–	–
Vero E6 [6], 10 nM	–	–	94.5	–	–
Vero E6 [6], 100 nM	–	–	99.8	–	–
Vero E6 [6], 1000 nM	–	–	95.7	–	–
Vero E6 [6], 10000 nM	–	–	84.4	–	–
[1], 0.3 µM	–	99	–	–	–
[1], 3 µM	–	103	–	–	–
[1], 10 µM	–	128	–	–	–
[1], 30 µM	–	73	–	–	–
[7], 0.3 µM	99	–	–	–	–
[7], 3 µM	84	–	–	–	–
[7], 10 µM	17	–	–	–	–
[7], 30 µM	46	–	–	–	–
[10], 0.3 µM	–	–	–	0.13	–
[10], 3 µM	–	–	–	0.26	–
[10], 10 µM	–	–	–	0.86	–
[10], 30 µM	–	–	–	0	–

drug-induced phospholipidosis [%], A549-ACE2 [9]
Conditions	0.3 µM	0.833333 µM	3.33333 µM	6.66667 µM	10 µM	30 µM
24 h	-1.03	-3.68	19.4	73	85.6	130
48 h	1.11	-2.85	18.7	79.1	101	132
72 h	2.19	-3.51	8.94	50.5	78.9	153

Conditions	drug sensitivity score	relative viability EC50 [µM]
Caco-2 [13]	1.5	–
Calu-3 [14]	3.4	–
HepG2 [15]	4.7	–
U2OS [11]	–	> 10
U2OS [16]	0	–
Vero E6 [12]	–	> 10
Vero E6 [17]	0.7	–

c1cc2c(cc1C1CCCCC1)c1c3n2CCNC3CCC1 (stereo unspecified) [tetrindole]
Conditions	SARS-CoV-2 infection rate [%]	cell count [%]	cell viability [%]	morphology score	phospholipidosis EC50 [µM]
A549-ACE2 [8], 24 h	–	–	–	–	6.5
A549-ACE2 [8], 48 h	–	–	–	–	2.52
A549-ACE2 [8], 72 h	–	–	–	–	3.19
Caco-2 [2], 1 nM	–	–	101	–	–
Caco-2 [2], 10 nM	–	–	92.3	–	–
Caco-2 [2], 100 nM	–	–	92.9	–	–
Caco-2 [2], 1000 nM	–	–	98.5	–	–
Caco-2 [2], 10000 nM	–	–	6.9	–	–
Calu-3 [3], 1 nM	–	–	91.3	–	–
Calu-3 [3], 10 nM	–	–	94.9	–	–
Calu-3 [3], 100 nM	–	–	93.8	–	–
Calu-3 [3], 1000 nM	–	–	88.7	–	–
Calu-3 [3], 10000 nM	–	–	0.8	–	–
HepG2 [4], 1 nM	–	–	101	–	–
HepG2 [4], 10 nM	–	–	107	–	–
HepG2 [4], 100 nM	–	–	95.8	–	–
HepG2 [4], 1000 nM	–	–	83.2	–	–
HepG2 [4], 10000 nM	–	–	0.5	–	–
U2OS [5], 1 nM	–	–	94.8	–	–
U2OS [5], 10 nM	–	–	104	–	–
U2OS [5], 100 nM	–	–	97.6	–	–
U2OS [5], 1000 nM	–	–	99.5	–	–
U2OS [5], 10000 nM	–	–	24.1	–	–
Vero E6 [6], 1 nM	–	–	97.9	–	–
Vero E6 [6], 10 nM	–	–	91.4	–	–
Vero E6 [6], 100 nM	–	–	97.1	–	–
Vero E6 [6], 1000 nM	–	–	93.9	–	–
Vero E6 [6], 10000 nM	–	–	1.3	–	–
[1], 0.1 µM	–	102	–	–	–
[1], 0.3 µM	–	101	–	–	–
[1], 1 µM	–	102	–	–	–
[1], 3 µM	–	117	–	–	–
[7], 0.1 µM	102	–	–	–	–
[7], 0.3 µM	96	–	–	–	–
[7], 1 µM	77	–	–	–	–
[7], 3 µM	28	–	–	–	–
[10], 0.1 µM	–	–	–	0.02	–
[10], 0.3 µM	–	–	–	0.07	–
[10], 1 µM	–	–	–	0.29	–
[10], 3 µM	–	–	–	0.87	–

drug-induced phospholipidosis [%], A549-ACE2 [9]
Conditions	0.3 µM	0.833333 µM	3.33333 µM	6.66667 µM	10 µM	30 µM
24 h	5.21	10.2	71.6	84.5	84.9	215
48 h	7.95	8.82	80.8	101	115	–
72 h	7.78	3.52	72.2	101	122	–

Conditions	drug sensitivity score	relative viability EC50 [µM]
Caco-2 [13]	5.4	–
Caco-2 [18]	–	3.05
Calu-3 [14]	7.4	–
Calu-3 [19]	–	2.22
HepG2 [15]	8.3	–
HepG2 [20]	–	1.88
U2OS [11]	–	3.11
U2OS [16]	4.3	–
Vero E6 [12]	–	2.68
Vero E6 [17]	6.4	–

Source: the supplement of paper PMC13380429
